In brackets after ≈: the same amount, converted by molar mass. Square brackets hold non-standard residues; d marks the D form. Ends that are not written are not given here. Peptide text beside a SMILES is read from it. * marks the point of attachment. X1 = C[N+](C)(C)[C@@H](Cc1ccccc1)C(=O)*; X2 = CC(C)C[C@@H](C(=O)*)[N+](C)(C)C; NMeF = CN[C@@H](Cc1ccccc1)C(=O)O; NMeI = CC[C@H](C)[C@H](NC)C(=O)O
How the values were obtained:
[1] = tested on: Staphylococcus aureus (ATCC 29213); assay: microbe, parasite or virus in culture; details: for S. aureus MIC: no change in OD620 between time 0 and 21 hours; for MIC Value: Table 4, minimum concentration needed to inhibit about 100 percent bacterial growth; for S. aureus IC50: Example 8, individual peptides; for MIC: Staphylococcus aureus, ATCC29213, read-out: MIC Value
Procedure: Concentrations of those 5X permethylated peptide mixtures that inhibited cellular growth by 50 percent (IC50) values were determined.
This culture was reinoculated and incubated at 37° C. to reach the exponential phase of bacterial growth; i.e., a final bacterial suspension containing about 10^5 to 5×10^5 colony-forming units (CFU)/ml. The concentration of cells was established by plating 100 μl of different dilutions of the culture solution (e.g., 10^-2, 10^-3 and 10^-4) onto solid agar plates. Following an overnight (about 18 hours) incubation at 37° C., the CFU thus formed were counted on each agar plate.
96-Well tissue culture plates were utilized, with eight wells per plate containing only medium as control blanks, whereas eight other wells contained medium plus cells as a positive growth control. These controls were used to detect possible medium contamination and to provide a measure of uninhibited growth of the microorganisms.
For determination of IC50 values (concentrations necessary to inhibit 50 percent growth of bacteria), peralkylated oligopeptide sets were added to the bacterial suspension at concentrations noted before. The plates were incubated overnight (about 18 hours) at 37° C., and the optical density (OD) determined at 620 nm after different times of incubation. IC50 values were then determined from the OD data.
Assays using S. aureus were carried out as described before. […] To initiate the exponential phase of bacterial growth prior to the assay, a sample of bacteria grown overnight (about 18 hours) at 37° C. in cation-adjusted Mueller Hinton broth (CAMM, for E. coli and S. aureus--Becton Dickinson Microbiology Systems, Cockeysville, Md.), or Brain Heart Infusion broth (BHI, for S. sanguis), was reinoculated in a 2X broth and incubated at 37° C. MRSA was grown at 35° C. in cation-adjusted MH broth in a similar manner. Prior to the assay, two colonies of newly grown C. albicans culture were inoculated in 5ml of phosphate buffer saline (PBS-35mM phosphate buffer, 0.15M NaCl-pH 7.0), and diluted in yeast medium broth. The bacteria and yeast suspensions were adjusted turbidimetrically so that a final concentration of 10^5 to 5×10^5 colony-forming units (CFU)/ml was used in all assays.
The plates were then incubated overnight at 37° C. […] The concentration necessary to inhibit 50 percent bacterial growth (IC50) was then calculated using the software program […] (ISI, San Diego, Calif.). […] In a similar manner, the plates containing C. albicans suspension were incubated for 48 hours at 30° C.

[2] = tested on: human red blood cells (RBC's); assay: Hemolytic activity on human red blood cells; format: cell-based; details: 0.25 percent RBC suspension, one hour at 37° C.
Procedure: Hemolytic activities of the peptides were determined using human red blood cells (RBC's). The assays were carried out in 96-well tissue culture plates against a 0.25 percent RBC suspension as described in Blondelie et al., Biochim. Biophys. Acta, 1202:331-336 (1993), incorporated herein by reference. Briefly, individual permethylated peptides or peptide mixtures were added to the RBC solution at concentrations derived from serial two-fold dilutions varying from […]. Following a one hour incubation at 37° C., the plates were centrifuged at 2800 rpm for 5 minutes. The supernatant was separated from the pellet and its OD measured at 414 nm. Triton (1 percent) and PBS were used as 100 percent and 0 percent hemolysis controls, respectively.

[3] = Merck Index, 10th ed.; cited from earlier work
[4] = tested on: Methicillin-resistant Staphylococcus aureus (MRSA) ATCC 33591; assay: Antimicrobial activity against MRSA (growth inhibition); format: cell-based; details: for MRSA MIC: no change in OD620 between time 0 and 21 hours
Procedure: (§1) Assays using S. aureus were carried out as described before. Methicillin-resistant Staphylococcus aureus (MRSA) ATCC 33591, Streptococcus sangus ATCC 10566, Escherichia coli ATCC 25922 and Candida albicans ATCC 10231 were used in the bioassays (ATCC, Rockville, Md.). To initiate the exponential phase of bacterial growth prior to the assay, a sample of bacteria grown overnight (about 18 hours) at 37° C. in cation-adjusted Mueller Hinton broth (CAMM, for E. coli and S. aureus--Becton Dickinson Microbiology Systems, Cockeysville, Md.), or Brain Heart Infusion broth (BHI, for S. sanguis), was reinoculated in a 2X broth and incubated at 37° C. MRSA was grown at 35° C. in cation-adjusted MH broth in a similar manner. Prior to the assay, two colonies of newly grown C. albicans culture were inoculated in 5ml of phosphate buffer saline (PBS-35mM phosphate buffer, 0.15M NaCl-pH 7.0), and diluted in yeast medium broth. The bacteria and yeast suspensions were adjusted turbidimetrically so that a final concentration of 10^5 to 5×10^5 colony-forming units (CFU)/ml was used in all assays.
(§2) The assays were carried out in 96-well tissue culture plates (Costar, Pleasanton, Calif.) as described in Blondelie et al., Biochemistry, 31:12688-12694 (1992), incorporated herein by reference. In brief, the bacterial suspension was added to an equal volume of the mixture of permeythylated compounds diluted in H2 O at concentrations derived from serial two-fold dilutions varying from 2500 μg/ml to 1 μg/ml. The plates were then incubated overnight at 37° C. The relative percent growth found for each compound (or mixture of compounds) was then determined by the optical density at 620 nm (OD620) using a Titertek Multiskan Plus apparatus (Flow Laboratories, McLean, Va.). The concentration necessary to inhibit 50 percent bacterial growth (IC50) was then calculated using the software program […] (ISI, San Diego, Calif.). […] In a similar manner, the plates containing C. albicans suspension were incubated for 48 hours at 30° C.

[5] = tested on: Streptococcus sangus ATCC 10566; assay: Assays against S. sanguis (growth inhibition); format: cell-based, Streptococcus sanguis; details: for S. sanguis IC50 / S. sanguis MIC: Table 6
Procedure: The permethylated amino acid and peptides were screened against S. aureus and Streptoccus sanguis, as described below, and IC50 and MIC (minimum inhibitory concentration; minimum concentration needed to inhibit about 100 percent bacterial growth) values were determined. […]
as §1, §2

Molecule | % hemolysis at 350 μg/ml [2] [%] | MRSA IC50 [4] [µg/mL] | MRSA MIC [4] [µg/mL] | S. sanguis IC50 [5] [µg/mL] | S. sanguis MIC [5] [µg/mL] | S. aureus IC50 [1] [µg/mL] | S. aureus MIC [1] [µg/mL] | other results
CC[C@H](C)[C@@H](C(=O)N(C)[C@@H](Cc1ccccc1)C(=O)N(C)[C@@H](Cc1ccccc1)C(=O)N(C)[C@@H](Cc1ccccc1)C(=O)NC)N(C)C(=O)[C@H](Cc1ccccc1)N(C)C(=O)[C@H](CC(C)C)[N+](C)(C)C [PerM-LFIFFF, PerM-LeuPheIlePhePhePhe] (X2-[NMeF][NMeI][NMeF][NMeF][NMeF]-NHMe) | 12 | – | – | – | – | – | – | S. aureus MIC ([1]; listed as permethylated LFIFFF-NH2): lower than 15 μg/ml
N-acetyl hexaPhe amide [N-Ac-hexaPhe, reference compound] | – | – | – | – | – | – | – | MIC Value [1]: > 500 µM
C[C@]12CC[C@H]3[C@@H](CCC4=CC(=O)CC[C@@]43C)[C@@H]1CC[C@@H]2O [testosterone] | – | – | – | – | – | – | – | solubility in water [3]: insoluble in water
CNC(=O)[C@H](Cc1ccccc1)N(C)C(=O)[C@H](Cc1ccccc1)N(C)C(=O)[C@H](Cc1ccccc1)N(C)C(=O)[C@H](Cc1ccccc1)N(C)C(=O)[C@H](Cc1ccccc1)N(C)C(=O)[C@H](CC(C)C)[N+](C)(C)C [PerM-LFFFFF, PerM-LeuPhePhePhePhePhe] (X2-[NMeF][NMeF][NMeF][NMeF][NMeF]-NHMe) | 10 | – | – | – | – | – | – | –
PerM-PhePheIlePhePheHis (FFIFFH; also: permethylated) [PerM-FFIFFH] | 0 | 19 | 21 to 42 | 18 | 30 to 40 | 14 | 31 to 42 | –
PerM-PhePhePhePheHisPhe (FFFFHF; also: permethylated) [PerM-FFFFHF] | 3 | 18 | 21 to 42 | 19 | 30 to 40 | 11 | 15 to 21 | –
CC[C@H]1OC(=O)[C@H](C)[C@@H](O[C@H]2C[C@@](C)(OC)[C@@H](O)[C@H](C)O2)[C@H](C)[C@@H](O[C@@H]2O[C@H](C)C[C@H](N(C)C)[C@H]2O)[C@](C)(O)C[C@@H](C)C(=O)[C@H](C)[C@@H](O)[C@]1(C)O [Erythromycin, reference compound] | – | – | – | – | – | – | – | MIC [1]: 0.5 µM (≈ 0.367 µg/mL)
CC[C@H](C)[C@@H](C(=O)N(C)[C@@H](Cc1ccccc1)C(=O)N(C)[C@@H](Cc1ccccc1)C(=O)N(C)[C@@H](Cc1ccccc1)C(=O)NC)N(C)C(=O)[C@H](Cc1ccccc1)N(C)C(=O)[C@H](Cc1ccccc1)[N+](C)(C)C [PerM-FFIFFF, PerM-PhePheIlePhePhePhe] (X1-[NMeF][NMeI][NMeF][NMeF][NMeF]-NHMe) | 0 | – | – | – | – | – | – | S. aureus MIC ([1]; listed as permethylated FFIFFF-NH2): lower than 15 μg/ml
PerM-LeuPheIlePhePheHis (LFIFFH; also: permethylated) [PerM-LFIFFH] | 1 | 20 | 25 to 42 | 19 | 30 to 40 | 12 | 21 to 31 | –
PerM-LeuPhePhePheHisPhe (LFFFHF; also: permethylated) [PerM-LFFFHF] | 4 | 13 | 15 to 21 | 19 | 30 to 40 | 12 | 21 to 31 | –
C[N+](C)(C)[C@@H](Cc1ccccc1)C(=O)N[C@@H](Cc1ccccc1)C(=O)N[C@@H](Cc1ccccc1)C(=O)N[C@@H](Cc1ccccc1)C(=O)N[C@@H](Cc1ccccc1)C(=O)N[C@@H](Cc1ccccc1)C(N)=O [reference compound] (X1-FFFFF-NH2) | – | – | – | – | – | > 250 | – | –
CNC(=O)[C@H](Cc1ccccc1)N(C)C(=O)[C@H](Cc1ccccc1)N(C)C(=O)[C@H](Cc1ccccc1)N(C)C(=O)[C@H](Cc1ccccc1)N(C)C(=O)[C@H](Cc1ccccc1)N(C)C(=O)[C@H](Cc1ccccc1)[N+](C)(C)C [PerA-FFFFFF, PerM-PhePhePhePhePhePhe] (X1-[NMeF][NMeF][NMeF][NMeF][NMeF]-NHMe) | 16 | – | – | – | – | – | – | S. aureus MIC ([1]; listed as permethylated FFFFFF-NH2): lower than 15 μg/ml
Cc1onc(-c2ccccc2)c1C(=O)N[C@@H]1C(=O)N2[C@@H]1SC(C)(C)[C@@H]2C(=O)O [Oxacillin, reference compound] | – | – | – | – | – | – | – | MIC [1]: 0.125 µM (≈ 0.0502 µg/mL)
PerM-LeuPhePhePhePheHis (LFFFFH; also: permethylated) [PerM-LFFFFH] | 3 | 16 | 21 to 42 | 22 | 30 to 40 | 13 | 21 to 42 | –
CNC(=O)[C@H](Cc1ccccc1)[N+](C)(C)C [PerA-F, permethylated Phe N-methylamide] | – | – | – | – | – | – | – | MIC Value ([5]; Table 5): > 500 µM; IC50 ([5]; Table 5, average results): > 500 µM; MIC Value [1]: > 500 µM
PerM-LeuPheIlePheHisPhe (LFIFHF; also: permethylated) [PerM-LFIFHF] | 7 | 14 | 15 to 21 | 13 | 20 to 40 | 12 | 21 to 31 | –

Reference: patent publication US5480971A, “Peralkylated oligopeptide mixtures” (Houghten Pharmaceuticals, Inc., priority 1994, dated 1996)
